Measurements from the NIST ThermoML archive (doi:10.1007/s10765-015-2006-0).
± gives the expanded uncertainty stated by the source.

Assay: mn = molality of the nth substance listed, in mol/kg
Details: 101 kPa, Liquid, Frequency=3 MHz, Sing-around technique in a fixed-path interferometer

NCC(=O)O [2-aminoacetic acid] + O
speed of sound [m/s]
Details	m1 = 0.01207	m1 = 0.0523	m1 = 0.1037	m1 = 0.2037	m1 = 0.3068	m1 = 0.4124	m1 = 0.5028	m1 = 0.6058	m1 = 0.6829	m1 = 0.82
288.15 K	1467.2 ± 3.4	1470.1 ± 3.4	1472.3 ± 3.4	1477.8 ± 3.4	1483.4 ± 3.4	1488.7 ± 3.4	1494.5 ± 3.4	1499.2 ± 3.4	1503.4 ± 3.4	1510.2 ± 3.4
298.15 K	1497.7 ± 3.4	1500.1 ± 3.4	1502.3 ± 3.4	1507.2 ± 3.4	1512.4 ± 3.4	1517.8 ± 3.4	1523 ± 3.4	1527.3 ± 3.4	1531.3 ± 3.4	1537.7 ± 3.4
308.15 K	1520 ± 3.4	1522.9 ± 3.4	1524.7 ± 3.4	1529.7 ± 3.4	1534.6 ± 3.4	1539.7 ± 3.4	1543.8 ± 3.4	1548.7 ± 3.4	1552.5 ± 3.4	1558.6 ± 3.4
318.15 K	1537.2 ± 3.4	1538.9 ± 3.4	1541.1 ± 3.4	1545.8 ± 3.4	1551.4 ± 3.4	1555.4 ± 3.4	1560.2 ± 3.4	1564.1 ± 3.4	1567.7 ± 3.4	1573.5 ± 3.4

O=C([O-])CC(O)(CC(=O)[O-])C(=O)[O-].[NH4+].[NH4+].[NH4+] [ammonium 2-hydroxypropane-1,2,3-tricarboxylate] + O
speed of sound [m/s]
Details	288.15 K	298.15 K	308.15 K	318.15 K
m1 = 0.2	1503.6 ± 3.4	1532.2 ± 3.4	1553.8 ± 3.4	1569 ± 3.4
m1 = 0.4	1540.7 ± 3.4	1567.5 ± 3.4	1587.7 ± 3.4	1602.1 ± 3.4
m1 = 0.6	1578.5 ± 3.4	1603.3 ± 3.4	1622 ± 3.4	1635.2 ± 3.4
m1 = 0.8	1615.6 ± 3.4	1638.6 ± 3.4	1655.7 ± 3.4	1667.6 ± 3.4
